Patent US20260232662A1, “MIR-124 INDUCER, AND PREPARATION METHOD THEREFOR AND USE THEREOF” (NANJING SYNNOCARE PHARMACEUTICAL TECHNOLOGY CO., LTD., priority 2023, published 2026)

test system: miR-124; experiment: Induction of miR-124 expression in PBMC cells (qPCR); type: cell-based; conditions: Homo sapiens, 72 h, 0.1 μM compound, human PBMCs stimulated with PMA/ionomycin, miR-191 reference gene, read-out: miR-124 expression, Fold change vs DMSO
Protocol: This study evaluated the ability of the compound of the present invention to influence miR-124 transcriptional activity in vitro. The experiment analyzed miR-124 expression in human PBMCs (Sailybio) using quantitative PCR (qPCR).
Thawed human PBMCs (1 mL) were added to 19 mL of culture medium (RPMI1640+10% hFBS+1‰ 2-mercaptoethanol) and the PBMCs were incubated in a cell culture incubator for 30 minutes. The PBMCs were collected and the cells (3.0*10^6 cells/well/3 mL) were resuspended in medium containing PMA (10 ng/mL; Invivogen) and ionomycin (200 ng/mL; Invivogen). The cells were incubated in a 6-well plate for 48 hours. Diluted compound was added to the cells to achieve a final concentration of 0.1 μM. After 72 hours, the samples were centrifuged and the cells were collected.
Total miRNA was extracted from the cells using the MiPure Cell/Tissue miRNA Kit (Vazyme) according to the manufacturer's instructions, followed by purification. The purified samples were treated with genomic DNA elimination buffer, and reverse transcription was performed using a GeneAmp PCR System. The resulting cDNA was subjected to quantitative real-time PCR (qPCR) analysis on a QuantStudio™ 7 Flex Real-Time PCR System. Data analysis was performed using the QuantStudio 7 software with default settings to automatically determine Ct values, and the results were exported. In this assay, miR-191 was used as the reference gene, and the DMSO-treated group served as the control. The relative expression of miR-124 was calculated using the following formula: […]

Question: How did the fold induction at 0.1 µM turn out when `Fc1cc(Cl)cc2nc(Nc3ccc(OC(F)(F)F)cc3)c3nccn3c12` [Compound B31, 7-chloro-9-fluoro-N-(4-(trifluoromethoxy)phenyl)imidazolo [1,2-a]quinoxalin-4-amine] was run?
Answer: Its fold induction at 0.1 µM is 24.4.

Question: With `FC1(F)Oc2ccc(Nc3nc4cccc(Cl)c4n4ccnc34)cc2O1` [Compound B52, 9-chloro-N-(2,2-difluorobenzo[d] [1,3]dihydroxy-5-yl) imidazolo[1,2-a]quinoxalin-4-amine] as the compound, how does the fold induction at 0.1 µM read?
Answer: The fold induction at 0.1 µM was 30.2.

Question: Which fold induction at 0.1 µM does the source give for `FC(F)(F)c1ccc(Nc2nc3c(Br)cccc3n3ccnc23)cc1` [Compound 51] here?
Answer: Its fold induction at 0.1 µM is 23.1.

Question: How did the fold induction at 0.1 µM turn out when `FC(F)(F)Sc1ccc(Nc2nc3c(Cl)cccc3n3ccnc23)cc1` [Compound 15] was run?
Answer: Its fold induction at 0.1 µM is 12.7.

Question: `FC(F)(F)Oc1ccc(Nc2nc3ccc(Br)cc3n3ccnc23)cc1` [Compound B6, 8-bromo-N-(4-(trifluoromethoxy)phenyl)imidazolo [1,2-a]quinoxalin-4-amine] was tested. Which fold induction at 0.1 µM did it give?
Answer: The fold induction at 0.1 µM was 22.

Question: Which fold induction at 0.1 µM does the source give for `Fc1cc(Cl)cc2c1nc(Nc1ccc(OC(F)(F)F)cc1)c1nccn12` [Compound 54] here?
Answer: The fold induction at 0.1 µM was 14.9.

Question: With `FC(F)(F)Oc1ccc(NC2=Nc3cc(Cl)cc(Cl)c3N3CCN=C23)cc1` [Compound B136, 7,9-dichloro-N-(4-(trifluoromethoxy)phenyl)-1,2-dihydroimidazo[1,2-a] quinoxalin-4-amine] as the compound, how does the fold induction at 0.1 µM read?
Answer: Its fold induction at 0.1 µM is 34.1.

Question: Which fold induction at 0.1 µM does the source give for `Fc1cccc2nc(Nc3ccc(OC(F)(F)F)c(Cl)c3)c3nccn3c12` [Compound B77, 9-fluoro-N-(3-chloro-4-(trifluoromethoxy)phenyl) imidazolo[1,2-a]quinoxalin-4-amine] here?
Answer: The fold induction at 0.1 µM was 23.1.

Question: How did the fold induction at 0.1 µM turn out when `Fc1cc(NC2=Nc3cc(Cl)cc(F)c3N3CCN=C23)ccc1C(F)(F)F` [Compound B134, 7-chloro-9-fluoro-N-(3-fluoro-4-(trifluoromethyl)phenyl)-1,2-dihydroimidazo[1,2-a] quinoxalin-4-amine] was run?
Answer: The fold induction at 0.1 µM was 27.5.

Question: `Fc1cc(Nc2nc3c(Cl)cc(Cl)cc3n3ccnc23)ccc1C(F)(F)F` [Compound 63] was tested. Which fold induction at 0.1 µM did it give?
Answer: The fold induction at 0.1 µM was 18.4.

Question: How did the fold induction at 0.1 µM turn out when `CSc1ccc(Nc2nc3cccc(Cl)c3n3ccnc23)cc1` [Compound B61, 9-chloro-N-(4-(methylthio)phenyl) imidazolo [1,2-a]quinoxalin-4-amine] was run?
Answer: Its fold induction at 0.1 µM is 19.9.

Question: How did the fold induction at 0.1 µM turn out when `FC1(F)Oc2ccc(Nc3nc4cc(Cl)cc(Cl)c4n4ccnc34)cc2O1` [Compound B93, 7,9-dichloro-N-(2,2-difluorobenzo [d][1,3]dihydroxy-5-yl) imidazolo[1,2-a] quinoxalin-4-amine] was run?
Answer: The fold induction at 0.1 µM was 19.1.

Question: Which fold induction at 0.1 µM does the source give for `Fc1cc(NC2=Nc3cc(Cl)cc(Cl)c3N3CCN=C23)ccc1OC(F)(F)F` [Compound B137, 7,9-dichloro-N-(3-fluoro-4-(trifluoromethoxy)phenyl)-1,2-dihydroimidazo[1,2-a] quinoxalin-4-amine] here?
Answer: Its fold induction at 0.1 µM is 31.1.

Question: With `Fc1cccc2c1nc(Nc1ccc3c(c1)OC(F)(F)O3)c1nccn12` [Compound 42] as the compound, how does the fold induction at 0.1 µM read?
Answer: Its fold induction at 0.1 µM is 14.1.

Question: Which fold induction at 0.1 µM does the source give for `Fc1cc(NC2=Nc3c(F)cc(Cl)cc3N3CCN=C23)ccc1C(F)(F)F` [Compound 96] here?
Answer: Its fold induction at 0.1 µM is 17.7.

Question: `FC(F)Oc1ccc(Nc2nc3c(Cl)cccc3n3ccnc23)cc1` [Compound 21] was tested. Which fold induction at 0.1 µM did it give?
Answer: The fold induction at 0.1 µM was 15.5.

Question: Which fold induction at 0.1 µM does the source give for `FC(F)Oc1ccc(Nc2nc3cccc(Cl)c3n3ccnc23)cc1` [Compound B59, 9-chloro-N-(4-(difluoromethoxy)phenyl)imidazolo [1,2-a]quinoxalin-4-amine] here?
Answer: The fold induction at 0.1 µM was 25.4.

Question: Which fold induction at 0.1 µM does the source give for `Fc1cc(Cl)c2c(c1)nc(Nc1ccc(OC(F)(F)F)cc1)c1nccn12` [Compound B22, 9-chloro-7-fluoro-N-(4-(trifluoromethoxy)phenyl)imidazolo [1,2-a]quinoxalin-4-amine] here?
Answer: Its fold induction at 0.1 µM is 32.5.

Question: With `Fc1cc(Nc2nc3cc(Cl)ccc3n3ccnc23)ccc1C(F)(F)F` [Compound B110, 7-chloro-N-(3-fluoro-4-(trifluoromethyl)phenyl) imidazolo[1,2-a] quinoxalin-4-amine] as the compound, how does the fold induction at 0.1 µM read?
Answer: Its fold induction at 0.1 µM is 25.5.

Question: How did the fold induction at 0.1 µM turn out when `Fc1cc(Cl)cc2c1nc(Nc1ccc3c(c1)OC(F)(F)O3)c1nccn12` [Compound 55] was run?
Answer: Its fold induction at 0.1 µM is 22.3.

Question: For `FC(F)(F)c1ccc(Nc2nc3c(Cl)cccc3n3ccnc23)cc1` [Compound 16], which fold induction at 0.1 µM is on record?
Answer: The fold induction at 0.1 µM was 13.4.

Question: For `Fc1cc(NC2=Nc3ccc(Cl)cc3N3CCN=C23)ccc1C(F)(F)F` [Compound B146, 8-chloro-N-(3-Fluoro-4-(trifluoromethyl)phenyl)-1,2-dihydroimidazo[1,2-a] quinoxalin-4-amine], which fold induction at 0.1 µM is on record?
Answer: Its fold induction at 0.1 µM is 28.7.

Question: Which fold induction at 0.1 µM does the source give for `FC(F)(F)c1ccc(Nc2nc3cc(Cl)cc(Cl)c3n3ccnc23)cc1Cl` [Compound B98, 7,9-dichloro-N-(3-chloro-4-(trifluoromethyl)phenyl) imidazolo[1,2-a] quinoxalin-4-amine] here?
Answer: Its fold induction at 0.1 µM is 22.9.

Question: `Fc1cc(NC2=Nc3c(Cl)cccc3N3CCN=C23)ccc1C(F)(F)F` [Compound 69] was tested. Which fold induction at 0.1 µM did it give?
Answer: Its fold induction at 0.1 µM is 22.9.

Question: With `FC(F)(F)Sc1ccc(Nc2nc3cc(Cl)cc(Cl)c3n3ccnc23)cc1` [Compound B99, 7,9-dichloro-N-(4-(trifluoromethylthio)phenyl) imidazolo[1,2-a] quinoxalin-4-amine] as the compound, how does the fold induction at 0.1 µM read?
Answer: The fold induction at 0.1 µM was 17.6.

Question: Which fold induction at 0.1 µM does the source give for `FC(F)(F)c1ccc(Nc2nc3cccc(Cl)c3n3ccnc23)nc1` [Compound B67, 9-chloro-N-(5-(trifluoromethyl)pyridin-2-yl) imidazolo [1,2-a]quinoxalin-4-amine] here?
Answer: The fold induction at 0.1 µM was 23.4.

Question: How did the fold induction at 0.1 µM turn out when `FC(F)(F)c1ccc(NC2=Nc3ccc(Cl)cc3N3CCN=C23)cc1` [Compound B145, 8-chloro-N-(4-(trifluoromethyl)phenyl)-1,2-dihydroimidazo[1,2-a] quinoxalin-4-amine] was run?
Answer: Its fold induction at 0.1 µM is 30.

Question: `Fc1cc(Nc2nc3c(Cl)cccc3n3ccnc23)ccc1C(F)(F)F` [Compound 28] was tested. Which fold induction at 0.1 µM did it give?
Answer: The fold induction at 0.1 µM was 10.4.

Question: For `Cn1c(=O)c(Nc2ccc3c(c2)OC(F)(F)O3)nc2c(Cl)cccc21` [Compound 12], which fold induction at 0.1 µM is on record?
Answer: Its fold induction at 0.1 µM is 22.

Question: With `Fc1cc(F)c2c(c1)nc(Nc1ccc(OC(F)(F)F)cc1)c1nccn12` [Compound B30, 7,9-difluoro-N-(4-(trifluoromethoxy)phenyl)imidazolo [1,2-a]quinoxalin-4-amine] as the compound, how does the fold induction at 0.1 µM read?
Answer: Its fold induction at 0.1 µM is 22.5.

Question: Which fold induction at 0.1 µM does the source give for `FC(F)(F)c1ccc(Nc2nc3c(Cl)cccc3n3ccnc23)nc1` [Compound 34] here?
Answer: Its fold induction at 0.1 µM is 14.7.

Question: `FC(F)(F)Oc1ccc(Nc2nc3c(Cl)cc(Cl)cc3n3ccnc23)cc1Cl` [Compound 66] was tested. Which fold induction at 0.1 µM did it give?
Answer: The fold induction at 0.1 µM was 22.7.

Question: Which fold induction at 0.1 µM does the source give for `Fc1cc(Nc2nc3cc(Cl)cc(F)c3n3ccnc23)ccc1C(F)(F)F` [Compound B91, 7-chloro-9-fluoro-N-(3-fluoro-4-(trifluoromethyl)phenyl) imidazolo[1,2-a] quinoxalin-4-amine] here?
Answer: The fold induction at 0.1 µM was 25.7.

Question: How did the fold induction at 0.1 µM turn out when `FC(F)(F)c1ccc(Nc2nc3ccc(Cl)cc3n3ccnc23)cc1Cl` [Compound B105, 8-chloro-N-(3-chloro-4-(trifluoromethyl)phenyl) imidazolo[1,2-a] quinoxalin-4-amine] was run?
Answer: Its fold induction at 0.1 µM is 27.8.

Question: Which fold induction at 0.1 µM does the source give for `Fc1cccc2nc(Nc3ccc(OC(F)(F)F)cc3)c3nccn3c12` [Compound B2, 9-fluoro-N-(4-(trifluoromethoxy)phenyl)imidazolo [1,2-a]quinoxalin-4-amine] here?
Answer: The fold induction at 0.1 µM was 37.4.

Question: `Fc1cc(Br)cc2nc(Nc3ccc(OC(F)(F)F)cc3)c3nccn3c12` [Compound B32, 7-bromo-9-fluoro-N-(4-(trifluoromethoxy)phenyl)imidazolo [1,2-a]quinoxalin-4-amine] was tested. Which fold induction at 0.1 µM did it give?
Answer: Its fold induction at 0.1 µM is 19.7.

Question: How did the fold induction at 0.1 µM turn out when `Fc1cc(Nc2nc3cc(Cl)cc(F)c3n3ccnc23)ccc1OC(F)(F)F` [Compound B88, 7-chloro-9-fluoro-N-(3-fluoro-4-(trifluoromethoxy)phenyl) imidazolo[1,2-a] quinoxalin-4-amine] was run?
Answer: The fold induction at 0.1 µM was 20.1.

Question: For `FC(F)(F)Oc1ccc(Nc2nc3ccc(Cl)c(Cl)c3n3ccnc23)cc1` [Compound B16, 8,9-dichloro-N-(4-(trifluoromethoxy)phenyl)imidazolo [1,2-a]quinoxalin-4-amine], which fold induction at 0.1 µM is on record?
Answer: The fold induction at 0.1 µM was 33.4.

Question: Which fold induction at 0.1 µM does the source give for `FC(F)(F)c1ccc(NC2=Nc3cccc(Cl)c3N3CCN=C23)cc1Cl` [Compound B123, 9-chloro-N-(3-chloro-4-(trifluoromethyl)phenyl)-1,2-dihydroimidazo[1,2-a] quinoxalin-4-amine] here?
Answer: Its fold induction at 0.1 µM is 24.3.

Question: `Fc1cc(Nc2nc3ccc(Cl)cc3n3ccnc23)ccc1C(F)(F)F` [Compound B104, 8-chloro-N-(3-fluoro-4-(trifluoromethyl)phenyl) imidazolo[1,2-a] quinoxalin-4-amine] was tested. Which fold induction at 0.1 µM did it give?
Answer: Its fold induction at 0.1 µM is 28.1.

Question: With `FC(F)(F)Oc1ccc(NC2=Nc3cccc(Cl)c3N3CCN=C23)cc1Cl` [Compound B120, 9-chloro-N-(3-chloro-4-(trifluoromethoxy)phenyl)-1,2-dihydroimidazo[1,2-a] quinoxalin-4-amine] as the compound, how does the fold induction at 0.1 µM read?
Answer: Its fold induction at 0.1 µM is 22.6.

Question: How did the fold induction at 0.1 µM turn out when `FC(F)(F)Oc1ccc(NC2=Nc3cc(Cl)ccc3N3CCN=C23)cc1` [Compound B148, 7-chloro-N-(4-(trifluoromethoxy)phenyl)-1,2-dihydroimidazo[1,2-a] quinoxalin-4-amine] was run?
Answer: The fold induction at 0.1 µM was 29.4.

Question: How did the fold induction at 0.1 µM turn out when `Fc1cc(Cl)cc2c1N1CCN=C1C(Nc1ccc(C(F)(F)F)c(Cl)c1)=N2` [Compound B135, 7-chloro-N-(3-chloro-4-(trifluoromethyl)phenyl)-9-fluoro-1,2-dihydroimidazo[1,2-a] quinoxalin-4-amine] was run?
Answer: The fold induction at 0.1 µM was 24.9.
